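48-hour exposure; five concentrations; linearly interpolated endpoints. At the TGI there is no net growth.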

What all share (test): NCI anticancer screen, dose series, 48 h
The subject of experiment [1] is EKVX NSCLC.
In experiment [2] the test system is K-562 leukemia.
Experiment [3] relates to MDA-MB-231 breast.
For experiment [4], the system named is MDA-MB-435.
Experiment [5] concerns OVCAR-5 ovarian.
For experiment [6], the system named is SK-OV-3 ovarian.
Experiment [7] deals with SNB-19 CNS.
Experiment [8] has as its system UACC-257 melanoma.
The subject of experiment [9] is LOX IMVI melanoma.
Experiment [10] deals with RPMI-8226 leukemia.

On to `CCCCCCCCC/C=C1\CC(CO)(COC(=O)c2ccccc2)OC1=O` (stereo not given), for which the TGI in [1] was 34 µM; in experiment [2], above 100 µM; in [3], 40.4 µM; in experiment [4], 36.3 µM; in experiment [5], 33.2 µM; in experiment [6], 43.3 µM. Further, the TGI in [7] stood at 40.2 µM; in experiment [8] it was 79.9 µM.

Turning to `Cc1n(CC(=O)c2ccccc2)nc2sc(N)n[n+]12`, the TGI in experiment [1], in experiment [2], in experiment [9], in experiment [4], in [5] and in experiment [10] was above 100 µM throughout. The TGI in experiment [6] is 74.7 µM; in experiment [7], above 100 µM; in [8], above 100 µM.

On to `O=C(CCCn1ccnc1[N+](=O)[O-])NCCn1ccnc1[N+](=O)[O-]`, for which the TGI in experiment [1], in experiment [2], in experiment [9], in experiment [4], in [5] and in experiment [10] was above 100 µM in each case. In addition, the TGI in [6], in experiment [7] and in [8] was above 100 µM each time.

Consider `O=C1C[C@H](c2ccccc2)C2(C(=O)c3ccccc3C2=O)[C@H](c2ccccc2)C1`, for which the TGI in experiment [2] was above 100 µM; in experiment [3], 80.2 µM; in experiment [4], above 100 µM; in experiment [5], above 100 µM; in experiment [10], above 100 µM; in experiment [6] it was above 100 µM. In experiment [7], this molecule showed a TGI above 100 µM.

Consider `Clc1ncnc2c1ncn2CCCCCCCCCCCCn1cnc2c(Cl)ncnc21`, for which the TGI in [1] is 33 µM; in [2] it was 17.4 µM; in [9], 7.19 µM; in [5], 72.7 µM; in experiment [10], 25.4 µM; in experiment [6], 33.3 µM. Further, the results for the TGI in [7] and in [8] were 27.8 µM and 11.9 µM, respectively.

On to `CC(=O)NC1=C(NCc2ccc(Cl)cc2)C(=O)c2ccccc2C1=O`, for which the TGI in experiment [1] was 31.4 µM; in [2] it was 16.7 µM; in experiment [9] it was 20.9 µM; in experiment [6], above 50 µM; in experiment [7] it was above 50 µM; in experiment [8] it was 12.4 µM.

`CC[C@@H]1CC[C@@H]2[C@H](CC[C@]3(C)[C@@H](OS(=O)(=O)c4ccc(C)cc4)CC[C@@H]23)[C@H]1CO`: the TGI in experiment [1], in [2], in experiment [9], in experiment [3], in experiment [4] and in [5] was above 100 µM in each case. Also, the TGI in experiment [10], in experiment [7] and in [8] was above 100 µM throughout.

Turning to `COC1/C=C/C(C)C(C(C)C(OC)C(C)CCC(=O)C(C)C(C/C=C/N(C)C=O)OC)OC(=O)/C=C/C=C(\C)CC(OC)C(OC)C2=CC(=O)O[C@@H](C(C)C(OC)CC(OC)/C=C/C(C)C(O)C1)[C@H]2O` (stereo not given in full), the TGI in experiment [1] was 0.441 µM; in experiment [2] it was above 100 µM; in experiment [9] it was 0.0755 µM; in [3], 0.247 µM; in experiment [4], 0.977 µM; in experiment [5] it was 0.623 µM. The same molecule returned a TGI in experiment [8] of 0.338 µM.

Consider `CC(=O)Nc1ccc(-c2nnc(SCC(=O)Nc3ccccc3C)o2)cc1`, for which the TGI in experiment [2], in [9], in [5], in experiment [10], in [6] and in experiment [8] was above 100 µM each time.

For `COc1nc2[nH]ccc2c(=O)n1C`, the TGI in [1], in [2], in experiment [9], in experiment [5], in experiment [10] and in experiment [7] was above 100 µM throughout. The molecule further gave a TGI in [8] above 100 µM.

`COc1cc(C(SCc2ccccc2)SCc2ccccc2)ccc1O`: the TGI in [1], in experiment [2], in experiment [9], in experiment [3], in experiment [10] and in experiment [6] was above 10 µM each time. This molecule came in with a TGI in experiment [7] above 10 µM.

Take `CN1CCCCC(C(O)(c2ccccc2)c2ccccc2)C1=O` (stereo not given): the TGI in experiment [1] is above 100 µM; in experiment [2], above 100 µM; in experiment [9] it was above 100 µM; in [5] it was above 100 µM; in experiment [10], 65.7 µM; in experiment [6], above 100 µM. For the same molecule, the TGI in [7] and in experiment [8] was above 100 µM in each case.

Consider `NC(=O)CS(=O)CC(N)C(=O)O` (stereo not given), for which the TGI in experiment [1], in experiment [2], in [9], in experiment [3], in experiment [4] and in experiment [5] was above 100 µM in each case. Also, the TGI in experiment [7] and in experiment [8] was above 100 µM in each case.

Turning to `COc1ccc(C2c3cc4c(cc3OC(N3CCCCC3)C2C)OCO4)cc1` (stereo not given), the TGI in [1], in experiment [2], in experiment [9], in experiment [4], in experiment [5] and in experiment [10] was above 100 µM each time. Moreover, the TGI in experiment [7] and in [8] was above 100 µM throughout.

As for `CC(=O)NC1=C(C)C(=O)c2c(nc3n2CC[C@H]3OC(C)=O)C1=O`, the TGI was 17.5 µM in experiment [1]; above 100 µM in experiment [2]; 2.11 µM in [9]; 2.71 µM in experiment [3]; 1.85 µM in experiment [4]; 7.34 µM in [5]. Further, the TGI in [10] came out at 7.4 µM; in experiment [7], 10.8 µM; in experiment [8], 2.2 µM.

On to `CC(=O)OCC1OC(c2nnc(C)o2)=CC(OC(C)=O)C1OC(C)=O` (stereo not given), for which the TGI in experiment [1], in [2], in [9], in experiment [3], in experiment [4] and in experiment [5] was above 100 µM throughout. Besides, the TGI in experiment [10], in experiment [7] and in [8] was above 100 µM throughout.

Values taken from PubChem BioAssay (NCI).
